From patent publication US9340590B2 (priority 2011, dated 2016) come the findings set out here.

Structures are written as SMILES. Positions of bridges follow the written chain, without caps; N, C: chain ends. Residues, ends and D or L forms follow the SMILES beside them.

Chain of hNav1.7 (Q15858 whole entry, looked up): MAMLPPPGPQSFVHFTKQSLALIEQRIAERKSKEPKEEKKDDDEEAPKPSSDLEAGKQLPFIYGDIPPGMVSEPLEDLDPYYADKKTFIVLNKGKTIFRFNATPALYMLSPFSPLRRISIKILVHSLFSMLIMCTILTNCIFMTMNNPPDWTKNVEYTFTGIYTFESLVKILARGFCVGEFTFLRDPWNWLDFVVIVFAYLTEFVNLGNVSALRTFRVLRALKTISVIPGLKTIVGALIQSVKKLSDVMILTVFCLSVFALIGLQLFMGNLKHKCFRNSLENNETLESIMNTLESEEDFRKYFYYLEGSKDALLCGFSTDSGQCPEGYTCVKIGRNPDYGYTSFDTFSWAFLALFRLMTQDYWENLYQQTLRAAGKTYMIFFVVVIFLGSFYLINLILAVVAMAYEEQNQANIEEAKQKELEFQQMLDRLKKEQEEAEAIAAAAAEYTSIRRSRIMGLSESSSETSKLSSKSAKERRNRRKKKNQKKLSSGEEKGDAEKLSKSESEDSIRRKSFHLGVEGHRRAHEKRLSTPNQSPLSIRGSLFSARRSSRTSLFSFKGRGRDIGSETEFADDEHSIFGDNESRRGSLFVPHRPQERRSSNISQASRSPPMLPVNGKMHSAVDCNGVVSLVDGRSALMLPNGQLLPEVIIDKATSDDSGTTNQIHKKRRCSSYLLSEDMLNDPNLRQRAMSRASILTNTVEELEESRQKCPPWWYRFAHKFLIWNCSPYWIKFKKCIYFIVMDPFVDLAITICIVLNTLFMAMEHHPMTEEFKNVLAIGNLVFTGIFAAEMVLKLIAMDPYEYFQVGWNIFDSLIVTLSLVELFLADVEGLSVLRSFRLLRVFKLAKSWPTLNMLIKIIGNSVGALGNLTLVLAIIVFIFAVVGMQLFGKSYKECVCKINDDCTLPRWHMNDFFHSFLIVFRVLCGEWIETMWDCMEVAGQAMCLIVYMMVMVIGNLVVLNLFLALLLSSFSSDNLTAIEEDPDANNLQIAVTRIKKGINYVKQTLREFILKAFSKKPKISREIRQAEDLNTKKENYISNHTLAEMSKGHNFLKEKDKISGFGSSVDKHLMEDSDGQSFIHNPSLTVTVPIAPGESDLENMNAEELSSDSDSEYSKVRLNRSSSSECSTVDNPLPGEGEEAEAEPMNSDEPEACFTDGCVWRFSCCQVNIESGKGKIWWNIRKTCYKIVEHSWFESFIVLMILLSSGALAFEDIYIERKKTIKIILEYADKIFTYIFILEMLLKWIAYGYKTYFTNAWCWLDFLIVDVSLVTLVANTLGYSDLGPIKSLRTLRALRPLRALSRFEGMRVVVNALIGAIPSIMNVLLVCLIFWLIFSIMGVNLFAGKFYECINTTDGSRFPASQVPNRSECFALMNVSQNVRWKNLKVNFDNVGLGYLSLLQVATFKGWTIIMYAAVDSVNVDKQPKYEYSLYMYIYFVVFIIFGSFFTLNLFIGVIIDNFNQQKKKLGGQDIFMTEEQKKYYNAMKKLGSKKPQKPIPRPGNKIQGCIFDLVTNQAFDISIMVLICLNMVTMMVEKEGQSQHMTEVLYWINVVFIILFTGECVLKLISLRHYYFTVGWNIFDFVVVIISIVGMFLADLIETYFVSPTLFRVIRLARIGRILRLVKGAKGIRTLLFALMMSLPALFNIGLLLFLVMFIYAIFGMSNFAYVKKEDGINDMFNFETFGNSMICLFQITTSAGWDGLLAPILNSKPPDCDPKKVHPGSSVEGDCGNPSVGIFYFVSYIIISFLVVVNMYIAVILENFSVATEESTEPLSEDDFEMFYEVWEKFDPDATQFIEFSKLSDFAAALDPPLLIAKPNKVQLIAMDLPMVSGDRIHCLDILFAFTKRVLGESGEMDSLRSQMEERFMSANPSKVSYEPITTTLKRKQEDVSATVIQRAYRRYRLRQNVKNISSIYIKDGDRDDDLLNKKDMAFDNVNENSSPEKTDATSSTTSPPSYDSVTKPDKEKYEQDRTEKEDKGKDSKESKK

The first assay addresses hNav1.7 (Homo sapiens, UniProt Q15858). As to the kind of experiment: cell-based. The settings on record: Nav1.7 Use IC50.
Take `CSCC[C@@H]1NC(=O)[C@H](Cc2ccccc2)NC(=O)CNC(=O)[C@H](CC(C)C)NC(=O)[C@@H](NC(=O)[C@@H](N)CC(=O)O)CSSC[C@@H]2NC(=O)[C@@H]3CSSC[C@@H](C(=O)N[C@@H](CCCCN)C(=O)N[C@@H](Cc4ccc(O)cc4)C(=O)N[C@H](C(=O)N[C@@H](Cc4ccccc4)C(N)=O)C(C)C)NC(=O)[C@H](Cc4c[nH]c5ccccc45)NC(=O)[C@H](CCCCN)NC(=O)[C@H](Cc4cnc[nH]4)NC(=O)[C@H]([C@@H](C)O)NC(=O)[C@H](CCCNC(=N)N)NC(=O)[C@H](CO)NC(=O)[C@H](CSSC[C@H](NC(=O)[C@H](CCCCN)NC(=O)[C@H](CCCNC(=N)N)NC1=O)C(=O)N[C@@H](CC(N)=O)C(=O)N1CCC[C@H]1C(=O)N[C@@H](CC(=O)O)C(=O)N[C@@H](CC(N)=O)C(=O)N[C@@H](CC(=O)O)C(=O)N[C@@H](CCCCN)C(=O)N3)NC(=O)[C@H](C(C)C)NC(=O)[C@H](CC(C)C)NC(=O)[C@H](CC(N)=O)NC(=O)[C@@H]1CCCN1C(=O)[C@H](CCCNC(=N)N)NC2=O` [[Asn10]GpTx-1(1-34)] (H-DCLGFMRKCNPDNDKCCRPNLVCSRTHKWCKYVF-NH2; disulfide 2-17, 9-23, 16-30): the IC50 (in general, the concentration needed to halve the response being measured) is 2 nM. `CSCC[C@@H]1NC(=O)[C@H](Cc2ccccc2)NC(=O)CNC(=O)[C@H](CC(C)C)NC(=O)[C@@H](NC(=O)[C@@H](N)CC(=O)O)CSSC[C@@H]2NC(=O)[C@@H]3CSSC[C@@H](C(=O)N[C@@H](CCCCN)C(=O)N[C@@H](Cc4ccc(O)cc4)C(=O)N[C@H](C(=O)N[C@@H](Cc4ccccc4)C(N)=O)C(C)C)NC(=O)[C@H](Cc4c[nH]c5ccccc45)NC(=O)[C@H](CCCCN)NC(=O)[C@H](Cc4cnc[nH]4)NC(=O)[C@H]([C@@H](C)O)NC(=O)[C@H](CCCNC(=N)N)NC(=O)[C@H](CO)NC(=O)[C@H](CSSC[C@H](NC(=O)[C@H](CCCCN)NC(=O)[C@H](CCCNC(=N)N)NC1=O)C(=O)N[C@@H](CC(=O)O)C(=O)N1CCC[C@H]1C(=O)N[C@@H](CC(=O)O)C(=O)N[C@@H](CC(N)=O)C(=O)N[C@@H](CC(=O)O)C(=O)N[C@@H](CCCCN)C(=O)N3)NC(=O)[C@H](C(C)C)NC(=O)[C@H](CC(C)C)NC(=O)[C@H](CC(N)=O)NC(=O)[C@@H]1CCCN1C(=O)[C@H](CCCNC(=N)N)NC2=O` [[Asp10]GpTx-1(1-34)] (H-DCLGFMRKCDPDNDKCCRPNLVCSRTHKWCKYVF-NH2; disulfide 2-17, 9-23, 16-30) yielded an IC50 of 3 nM.

For the compound `CC[C@H](C)[C@@H]1NC(=O)[C@@H]2CSSC[C@@H]3NC(=O)[C@H](C(C)C)NC(=O)[C@H](CC(C)C)NC(=O)[C@H](CC(N)=O)NC(=O)[C@@H]4CCCN4C(=O)[C@H](CCCNC(=N)N)NC(=O)[C@H](CSSC[C@H](NC(=O)[C@@H](N)CC(=O)O)C(=O)N[C@@H](CC(C)C)C(=O)NCC(=O)N[C@@H](Cc4ccccc4)C(=O)N[C@@H](CCSC)C(=O)N[C@@H](CCCNC(=N)N)C(=O)N[C@@H](CCCCN)C(=O)N2)NC(=O)[C@H](CSSC[C@@H](C(=O)N[C@@H](CCCCN)C(=O)N[C@@H](Cc2ccc(O)cc2)C(=O)N[C@H](C(=O)N[C@@H](Cc2ccccc2)C(N)=O)C(C)C)NC(=O)[C@H](Cc2c[nH]c4ccccc24)NC(=O)[C@H](CC(=O)O)NC(=O)[C@H](Cc2cnc[nH]2)NC(=O)[C@H]([C@@H](C)O)NC(=O)[C@H](CCCNC(=N)N)NC(=O)[C@H](CO)NC3=O)NC(=O)[C@H](CCCCN)NC(=O)[C@H](CC(=O)O)NC(=O)[C@H](CC(N)=O)NC(=O)[C@H](CC(=O)O)NC(=O)[C@@H]2CCCN2C1=O` [[Asp28]GpTx-1(1-34)] (H-DCLGFMRKCIPDNDKCCRPNLVCSRTHDWCKYVF-NH2; disulfide 2-17, 9-23, 16-30), the concentration for half-maximal inhibition (IC50) was determined as 15 nM. Consider `CC[C@H](C)[C@@H]1NC(=O)[C@@H]2CSSC[C@@H]3NC(=O)[C@H](C(C)C)NC(=O)[C@H](CC(C)C)NC(=O)[C@H](CC(N)=O)NC(=O)[C@@H]4CCCN4C(=O)[C@H](CCCNC(=N)N)NC(=O)[C@H](CSSC[C@H](NC(=O)[C@@H](N)CC(=O)O)C(=O)N[C@@H](CC(C)C)C(=O)NCC(=O)N[C@@H](C4CCCCC4)C(=O)N[C@@H](CCSC)C(=O)N[C@@H](CCCNC(=N)N)C(=O)N[C@@H](CCCCN)C(=O)N2)NC(=O)[C@H](CSSC[C@@H](C(=O)N[C@@H](CCCCN)C(=O)N[C@@H](Cc2ccc(O)cc2)C(=O)N[C@H](C(=O)N[C@@H](Cc2ccccc2)C(N)=O)C(C)C)NC(=O)[C@H](Cc2c[nH]c4ccccc24)NC(=O)[C@H](CCCCN)NC(=O)[C@H](Cc2cnc[nH]2)NC(=O)[C@H]([C@@H](C)O)NC(=O)[C@H](CCCNC(=N)N)NC(=O)[C@H](CO)NC3=O)NC(=O)[C@H](CCCCN)NC(=O)[C@H](CC(=O)O)NC(=O)[C@H](CC(N)=O)NC(=O)[C@H](CC(=O)O)NC(=O)[C@@H]2CCCN2C1=O` [[Chg5]GpTx-1(1-34)], for which the midpoint of inhibition, the IC50, lay at 7 nM. Take `CSCC[C@@H]1NC(=O)[C@H](Cc2ccccc2)NC(=O)CNC(=O)[C@H](CC(C)C)NC(=O)[C@@H](NC(=O)[C@@H](N)CC(=O)O)CSSC[C@@H]2NC(=O)[C@@H]3CSSC[C@@H](C(=O)N[C@@H](CCCCN)C(=O)N[C@@H](Cc4ccc(O)cc4)C(=O)N[C@H](C(=O)N[C@@H](Cc4ccccc4)C(N)=O)C(C)C)NC(=O)[C@H](Cc4c[nH]c5ccccc45)NC(=O)[C@H](CCCCN)NC(=O)[C@H](Cc4cnc[nH]4)NC(=O)[C@H]([C@@H](C)O)NC(=O)[C@H](CCCNC(=N)N)NC(=O)[C@H](CO)NC(=O)[C@H](CSSC[C@H](NC(=O)[C@H](CCCCN)NC(=O)[C@H](CCCNC(=N)N)NC1=O)C(=O)N[C@@H](CCC(=O)O)C(=O)N1CCC[C@H]1C(=O)N[C@@H](CC(=O)O)C(=O)N[C@@H](CC(N)=O)C(=O)N[C@@H](CC(=O)O)C(=O)N[C@@H](CCCCN)C(=O)N3)NC(=O)[C@H](C(C)C)NC(=O)[C@H](CC(C)C)NC(=O)[C@H](CC(N)=O)NC(=O)[C@@H]1CCCN1C(=O)[C@H](CCCNC(=N)N)NC2=O` [[Glu10]GpTx-1(1-34)] (H-DCLGFMRKCEPDNDKCCRPNLVCSRTHKWCKYVF-NH2; disulfide 2-17, 9-23, 16-30): the IC50 was determined as 2 nM. For the compound `CC[C@H](C)[C@@H]1NC(=O)[C@@H]2CSSC[C@@H]3NC(=O)[C@H](C(C)C)NC(=O)[C@H](CC(C)C)NC(=O)[C@H](CC(N)=O)NC(=O)[C@@H]4CCCN4C(=O)[C@H](CCCNC(=N)N)NC(=O)[C@H](CSSC[C@H](NC(=O)[C@@H](N)CC(=O)O)C(=O)N[C@@H](CC(C)C)C(=O)NCC(=O)N[C@@H](Cc4ccccc4)C(=O)N[C@@H](CCSC)C(=O)N[C@@H](CCCNC(=N)N)C(=O)N[C@@H](CCCCN)C(=O)N2)NC(=O)[C@H](CSSC[C@@H](C(=O)N[C@@H](CCCCN)C(=O)N[C@@H](Cc2ccc(O)cc2)C(=O)N[C@H](C(=O)N[C@@H](Cc2ccccc2)C(N)=O)C(C)C)NC(=O)[C@H](Cc2c[nH]c4ccccc24)NC(=O)[C@H](CCCCN)NC(=O)[C@H](Cc2cnc[nH]2)NC(=O)[C@H]([C@@H](C)O)NC(=O)[C@H](CCCNC(=N)N)NC(=O)[C@H](CO)NC3=O)NC(=O)[C@H](CCCCN)NC(=O)[C@H](CC(=O)O)NC(=O)[C@H](CC(N)=O)NC(=O)[C@H](CC(=O)O)NC(=O)[C@H](CCC(=O)O)NC1=O` [[Glu11]GpTx-1(1-34)] (H-DCLGFMRKCIEDNDKCCRPNLVCSRTHKWCKYVF-NH2; disulfide 2-17, 9-23, 16-30), the IC50 turned out to be 2 nM.

The assay is the same for the next values; noted with them: read-out: Nav1.7 Use IC50.
Regarding `CC[C@H](C)[C@@H]1NC(=O)[C@@H]2CSSC[C@@H]3NC(=O)[C@H](C(C)C)NC(=O)[C@H](CC(C)C)NC(=O)[C@H](CC(N)=O)NC(=O)[C@@H]4CCCN4C(=O)[C@H](CCCNC(=N)N)NC(=O)[C@H](CSSC[C@H](NC(=O)[C@@H](N)CC(=O)O)C(=O)N[C@@H](CC(C)C)C(=O)NCC(=O)N[C@@H](C4CCCC4)C(=O)N[C@@H](CCSC)C(=O)N[C@@H](CCCNC(=N)N)C(=O)N[C@@H](CCCCN)C(=O)N2)NC(=O)[C@H](CSSC[C@@H](C(=O)N[C@@H](CCCCN)C(=O)N[C@@H](Cc2ccc(O)cc2)C(=O)N[C@H](C(=O)N[C@@H](Cc2ccccc2)C(N)=O)C(C)C)NC(=O)[C@H](Cc2c[nH]c4ccccc24)NC(=O)[C@H](CCCCN)NC(=O)[C@H](Cc2c[nH]cn2)NC(=O)[C@H]([C@@H](C)O)NC(=O)[C@H](CCCNC(=N)N)NC(=O)[C@H](CO)NC3=O)NC(=O)[C@H](CCCCN)NC(=O)[C@H](CC(=O)O)NC(=O)[C@H](CC(N)=O)NC(=O)[C@H](CC(=O)O)NC(=O)[C@@H]2CCCN2C1=O` [[Cpg5]GpTx-1(1-34)], the half-maximal inhibitory concentration (IC50) worked out at 5 nM. Consider `CC[C@H](C)[C@@H]1NC(=O)[C@@H]2CSSC[C@@H]3NC(=O)[C@H](C(C)C)NC(=O)[C@H](CC(C)C)NC(=O)[C@H](CC(N)=O)NC(=O)[C@@H]4CCCN4C(=O)[C@H](CCCNC(=N)N)NC(=O)[C@H](CSSC[C@H](NC(=O)[C@@H](N)CC(=O)O)C(=O)N[C@@H](CC(C)C)C(=O)NCC(=O)N[C@@H](Cc4ccccc4)C(=O)N[C@@H](CCSC)C(=O)N[C@@H](CCCNC(=N)N)C(=O)N[C@@H](CCCCN)C(=O)N2)NC(=O)[C@H](CSSC[C@@H](C(=O)N[C@@H](CCCCN)C(=O)N[C@@H](Cc2ccc(O)cc2)C(=O)N[C@H](C(=O)N[C@@H](Cc2ccccc2)C(N)=O)C(C)C)NC(=O)[C@H](Cc2c[nH]c4ccccc24)NC(=O)[C@H](CCC(N)=O)NC(=O)[C@H](Cc2c[nH]cn2)NC(=O)[C@H]([C@@H](C)O)NC(=O)[C@H](CCCNC(=N)N)NC(=O)[C@H](CO)NC3=O)NC(=O)[C@H](CCCCN)NC(=O)[C@H](CC(=O)O)NC(=O)[C@H](CC(N)=O)NC(=O)[C@H](CC(=O)O)NC(=O)[C@@H]2CCCN2C1=O` [[Gln28]GpTx-1(1-34)] (H-DCLGFMRKCIPDNDKCCRPNLVCSRTHQWCKYVF-NH2; disulfide 2-17, 9-23, 16-30), for which the half-maximal inhibitory concentration (IC50) is 4 nM.
